Laboratory results reported in US20250387443A1, “ENHANCING ONCOLYTIC V[…] A COMBINATION OF NUCLEAR EXPORT INHIBITOR AND MYXOMA VIRUS […] DEATH PATHWAYS” (Arizona Board of Regents on behalf of Arizona State …, priority 2024, published 2025).

How the values were obtained:
PANC-1 cells [1] = assay type: cell-based, human
Colo205 cells = assay type: cell-based, human
MDA-MB435 cells = assay type: cell-based, human
PANC-1 cells [2] = assay type: cell-based, human; remark: listed apart in the source
[3] = system: human xenograft tumor models; experiment: MYXV replication in human xenograft tumor models; assay type: in vivo; conditions: human xenograft tumor models in NSG mice
2D and 3D cell cultures = experiment: MYXV replication in 2D and 3D cell cultures; assay type: cell-based

O=C(/C=C\n1cnc(-c2cc(C(F)(F)F)cc(C(F)(F)F)c2)n1)NNc1cnccn1 [selinexor]
significantly enhanced: MYXV gene expression and replication (PANC-1 cells [1]) | MYXV gene expression and replication (Colo205 cells) | MYXV gene expression and replication (MDA-MB435 cells) | replication of vMyx-M11L-KO (progeny virus) (PANC-1 cells [2]) | replication of vMyx-hLIGHT (progeny virus) (PANC-1 cells [2]) | MYXV replication [3] | MYXV replication (2D and 3D cell cultures)
